Measured values as given in patent US12116364B2, “Heteroaryl compounds and uses thereof” (APRINOIA THERAPEUTICS INC., priority 2018, dated 2024).

Tests used:
[1] = target: recombinant tau proteins (human Tau, heparin-fiberized) (Homo sapiens, UniProt P10636); test: Fluorescence quantitative Tau binding assay in vitro; conditions: 0.04 uM fiberized recombinant tau, 30 mM Tris pH 7.5, 1 h, fluorometric saturation curve
Experimental: Expression and Purification of Human Tau Protein
• pET41a-Tau wild type • One Shot® BL21(DE3) Chemically Competent E. coli (Invitrogen, C600003) • Kanamycin sulfate (Sangon Biotech, A506636) • IPTG (Sangon Biotech, A100487) • Pipes buffer (100 mM Pipes, pH6.8, 1 mM EGTA, 1 mM MgSO4) • Hepes buffer (25 mM Hepes, pH7.2, 0.1 mM EDTA, 0.5 mM DTT, 100 mM NaCl) • Q-Sepharose Fast Flow column (GE Healthcare, 17-0510-01) • SP-Sepharose Fast Flow column (GE Healthcare, 17-0729-01) Procedures: Protein Expression: • Step 1: Transform 1 uL expression plasmid pET41a-tau wt into one One Shot® BL21(DE3) Chemically Competent E. coli, on ice 30 min. • Step 2: 42° C. heat shock 90 second and on ice 2 min, 37° C. recovery for 30 min, Plate small amount on LB(Kan+) agar plate incubate overnight at 37° C. • Step 3: Pick and resuspend a single colony in 200 mL liquid culture with 50 ug/mL Kanamycin to produce a starter culture. Inoculate starter culture and shake 200 rpm overnight at 37° C. • Step 4: Add 100× dilution Starter into fresh culture medium (Kan+) shake 200 rpm at 37° C. until OD600=0.8. • Step 5: Add IPTG (final conc. 1 mM) and express protein for 3 hr. • Step 6: Collect cell pellet and store at −80° C. for purification. Protein Purification: • Step 1: Cell pellet was resuspended in Pipes buffer. • Step 2: Sonication and centrifugation (15,000 rpm, 15 min at 4° C. • Step 3: The supernatant was placed in a boiling water bath for 20 min and subsequently centrifuged. The heat-stable proteins in the supernatant were loaded onto a Q-Sepharose Fast Flow column (20 mL) • Step 4: The flow through containing tau was loaded onto SP-Sepharose Fast Flow column (10 mL), eluted with Pipes buffer containing 0.2M NaCl. • Step 6: Fractions containing tau were pooled, concentrated and dialyzed against Hepes buffer, stored at −80° C. • Step 7: Reload SP-Flow through into Q-Sepharose Fast Flow column (20 mL) and SP-Sepharose Fast Flow column (10 mL) again, eluted with Pipes buffer containing 0.2M NaCl. • Step 8: Fractions containing tau were pooled, concentrated and dialyzed against Hepes buffer, stored at −80° C. Repeat step 6-7 twice, Collect all above all elution product and concentrated. Biological Assays Fluorescence Quantitative Tau Binding Assay In Vitro
2 uM of recombinant tau proteins and 15 uM of heparin were fiberized in 30 mM Tris (pH 7.5) buffer by overnight incubation at 37° C. 0.04 uM of recombinant tau proteins which was diluted in 30 mM Tris buffer (pH 7.5) was then reacted with test compounds (containing 1% DMSO) for 1 h. Regarding the fluorometric data, the binding saturation curve was created and the parameter estimation method was conducted using Prism software (GraphPad). Kd values were determined for each of test compounds. Table A lists Kd values of exemplary test compounds.

[2] = target: [11C]PBB3 binding sites (tau aggregates) in temporal cortex homogenates of an Alzheimer's disease patient (Homo sapiens, UniProt P10636); test: Fluorescence competitive binding assay in vitro ([11C]PBB3 displacement in Alzheimer's disease temporal cortex homogenates); conditions: 5 nM [11C]PBB3, AD temporal cortex homogenate (100 μg tissue), 30 min, room temperature
Experimental: Fluorescence competitive binding assay in vitro was performed as reported previously1. Frozen tissues derived from the temporal cortex of an Alzheimer's disease patient was homogenized in 50 mM Tris-HCl buffer, pH 7.4, containing protease inhibitor cocktail (cOmplete™, EDTA-free; Roche), and stored at −80° C. pending analyses. To assay radioligand binding with homologous or heterologous blockade, these homogenates (100 μg tissue) were incubated with 5 nM [11C]PBB3 (molar radioactivity: 100-150 GBq/μmol) in the absence or presence of unlabeled PBB3 at varying concentrations ranging from 10-11-106 M in Tris-HCl buffer containing 10% ethanol, pH 7.4, for 30 min at room temperature. Non-specific binding of [11C]PBB3 was determined in the presence of 5×10^−7 M PBB3. Samples were run once only and specific radioligand binding was determined as pmol/g tissue. Inhibition constant (Ki) and percentage of displacement were determined by using non-linear regression to fit a concentration-binding plot to one-site and two-site binding models derived from the Cheng-Prusoff equation with GraphPad Prism version 6.0 (GraphPad Software), followed by F-test for model selection. In a one-site homologous blockade model, dissociation constant (Kd) was calculated from homologous competitive binding using this function: Kd=Ki=IC50−Radioligand
where IC50 and [Radioligand] stand for the concentration of the competitor inducing 50% inhibition and radioligand concentration, respectively. Experiments with [^11C]PBB3 and unlabeled PBB3 were performed in a dimly lit condition to avoid photoconversion of the compounds. Table B lists Ki values of exemplary test compounds.

[3] = test system: tau aggregates (tangles/threads) in temporal cortex sections of an AD brain; test: Histological examination by fluorescence staining of AD brain sections; type: binding, human; conditions: 0.001% (W/V) compound in 50% ethanol, 30 min, relative to PBB3; for Fluorescent binding Tangle: score for tangles; for Fluorescent binding Thread: score for threads
Experimental: The fluorescence binding assessment was performed as reported previously^1. For fluorescence labeling with PBB3 and test compounds, deparaffinized temporal cortex sections of an AD brain were incubated in 50% ethanol containing 0.001% (W/V) of PBB3 or test compound at room temperature for 30 min. The samples were rinsed with 50% ethanol for 5 min, dipped into distilled water twice for 3 min, and mounted in non-fluorescent mounting media ([…]; Vector Laboratories). Fluorescence images were captured using a DM4000 microscope (Leica) equipped with a custom filter cube for PBB3 (excitation band-pass at 391-437 nm and suppression low-pass with 458 nm cutoff).

Sequence of [11C]PBB3 binding sites (tau aggregates) in temporal cortex homogenates of an Alzheimer's disease patient (P10636 623-695 limits assumed): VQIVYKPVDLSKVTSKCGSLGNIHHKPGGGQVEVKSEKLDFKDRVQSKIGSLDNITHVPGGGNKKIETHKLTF
Sequence of recombinant tau proteins (human Tau, heparin-fiberized) (P10636 whole entry): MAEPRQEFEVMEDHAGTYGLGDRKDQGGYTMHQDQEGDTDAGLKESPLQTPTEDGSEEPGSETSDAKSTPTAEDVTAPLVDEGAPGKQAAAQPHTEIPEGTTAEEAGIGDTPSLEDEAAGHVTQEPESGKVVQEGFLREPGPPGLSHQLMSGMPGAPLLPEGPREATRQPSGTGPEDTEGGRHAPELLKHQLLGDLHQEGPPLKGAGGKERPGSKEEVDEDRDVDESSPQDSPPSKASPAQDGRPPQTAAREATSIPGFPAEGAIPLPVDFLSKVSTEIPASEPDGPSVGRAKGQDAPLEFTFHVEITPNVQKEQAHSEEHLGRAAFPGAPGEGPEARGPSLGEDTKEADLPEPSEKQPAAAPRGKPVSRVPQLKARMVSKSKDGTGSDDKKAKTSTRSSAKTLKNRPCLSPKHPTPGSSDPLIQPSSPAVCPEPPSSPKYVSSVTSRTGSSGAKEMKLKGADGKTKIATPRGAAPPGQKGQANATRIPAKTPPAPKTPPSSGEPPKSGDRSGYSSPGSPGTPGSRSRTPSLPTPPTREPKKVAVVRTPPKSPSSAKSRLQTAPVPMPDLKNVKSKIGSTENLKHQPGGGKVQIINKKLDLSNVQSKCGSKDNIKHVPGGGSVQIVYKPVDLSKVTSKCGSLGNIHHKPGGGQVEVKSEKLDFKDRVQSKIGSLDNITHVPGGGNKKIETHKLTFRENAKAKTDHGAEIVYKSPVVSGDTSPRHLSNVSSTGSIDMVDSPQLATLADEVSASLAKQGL

Kd [1]	Ki [2]	Fluorescent binding Tangle [3]	Fluorescent binding Thread [3]	Compound
260 nM	20 nM	0.5	0	CNc1ccc(-c2ccc(-c3cn4cc(OCC(O)CF)ccc4n3)cc2)cn1 (centres unmarked) [Compound N, 1-Fluoro-3-(2-(4-(6-(methylamino)pyridin-3-yl)phenyl)imidazo[1,2-a]pyridin-6-yloxy)propan-2-ol]
890 nM	5 nM	3/3	3/3	CNc1ccc(-c2ccc(-c3nc4ccc(NCC(O)CF)cc4s3)cc2)cn1 (centres unmarked) [Compound J, 1-Fluoranyl-3-[[2-[4-[6-(methylamino)pyridin-3-yl]phenyl]-1,3-benzothiazol-6-yl]amino]propan-2-ol]
690 nM	1 nM	3/3	3/3	CNc1ccc(-c2ccc(-c3cc4ccncc4[nH]3)cc2)c(F)n1 [Compound D, 5-(4-(1H-Pyrrolo[2,3-c]pyridin-2-yl)phenyl)-6-fluoro-N-methylpyridin-2-amine]
250 nM	25 nM	2	1.5	CNc1ccc(-c2ccc(-c3cc4ccnc(O)c4[nH]3)cc2)cn1 [Compound C, 2-(4-(6-(Methylamino)pyridin-3-yl)phenyl)-1H-pyrrolo[2,3-c]pyridin-7-ol]
1450 nM	5 nM	3/3	3/3	CNc1ncc(-c2cc(F)c(-c3nc4ccc(N)cc4s3)cn2)cn1 [Compound Z, 2-(4-Fluoro-6-(2-(methylamino)pyrimidin-5-yl)pyridin-3-yl)benzo[d]thiazol-6-amine]
